# Read-outs that look alike come from different tables or passages of the source.
# How the values were obtained:
# [1] = in vivo; cited from earlier work
# MAO-A and B = details: irreversible, non-selective inhibitor; cited from earlier work
# MAO-A [2] = target: T1, MAO-A (Homo sapiens, UniProt P21397); test: MAO-Glo assay kit, MAO-A; format: biochemical; details: dose response curve, 1 h room temperature
# T1 sequence (P21397 1-527): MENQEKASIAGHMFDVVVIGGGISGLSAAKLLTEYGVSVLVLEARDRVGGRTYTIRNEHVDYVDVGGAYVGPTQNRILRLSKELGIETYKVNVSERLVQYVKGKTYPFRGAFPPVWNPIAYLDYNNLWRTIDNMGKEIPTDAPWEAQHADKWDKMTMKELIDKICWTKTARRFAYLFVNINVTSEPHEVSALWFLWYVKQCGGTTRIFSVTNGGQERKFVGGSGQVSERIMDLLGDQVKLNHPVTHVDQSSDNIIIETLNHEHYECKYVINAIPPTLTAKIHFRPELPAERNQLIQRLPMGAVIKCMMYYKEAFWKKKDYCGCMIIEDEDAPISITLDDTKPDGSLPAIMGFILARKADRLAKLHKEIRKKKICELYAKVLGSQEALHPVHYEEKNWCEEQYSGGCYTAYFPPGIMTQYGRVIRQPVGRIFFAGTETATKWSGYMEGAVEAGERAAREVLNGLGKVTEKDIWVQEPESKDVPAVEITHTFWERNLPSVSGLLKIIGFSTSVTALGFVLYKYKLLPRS
# Method: (§1) Synthetic sarmentosin (BOC Sciences; Cat. No. B2703-149954) was diluted in PBS for the MAO inhibition assays. […] Briefly, samples were combined with the kit's luminogenic MAO substrate solution and human enzyme (MAO-A or MAO-B at a final concentration of 20 μg/mL) and incubated at room temperature for 1 h. Following incubation, the luciferin detection reagent were added to each sample and the change in luminescence was measured at room temperature over 40 min in a FLUOstar Omega plate reader (BMG FluoStar Optima, Alphatech Systems, Auckland, New Zealand). […] All samples were analysed in triplicate on each plate.
# human enzyme MAO-B = target: T2, human enzyme MAO-B (Homo sapiens, UniProt P27338); test: MAO-Glo assay kit, MAO-B; format: biochemical; details: highest concentration tested
# T2 sequence (P27338 1-520): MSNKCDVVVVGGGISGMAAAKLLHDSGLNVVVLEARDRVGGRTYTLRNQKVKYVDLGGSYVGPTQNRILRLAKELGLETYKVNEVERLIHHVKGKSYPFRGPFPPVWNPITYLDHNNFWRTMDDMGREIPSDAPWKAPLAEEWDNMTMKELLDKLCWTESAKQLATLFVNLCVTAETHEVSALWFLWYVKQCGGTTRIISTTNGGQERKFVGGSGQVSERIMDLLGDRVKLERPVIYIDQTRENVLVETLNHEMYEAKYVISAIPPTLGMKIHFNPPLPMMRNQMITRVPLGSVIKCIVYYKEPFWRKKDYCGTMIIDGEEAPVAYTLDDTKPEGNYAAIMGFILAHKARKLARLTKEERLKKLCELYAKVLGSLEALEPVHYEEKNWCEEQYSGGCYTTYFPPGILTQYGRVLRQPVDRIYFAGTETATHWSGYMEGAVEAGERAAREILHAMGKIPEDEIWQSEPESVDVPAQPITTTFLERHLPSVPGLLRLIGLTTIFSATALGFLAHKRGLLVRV
# Method: as §1
# [3] = human, in vivo
# Method: Plasma was separated from whole blood collected in lithium heparin tubes from participants by centrifugation at 4000×g for 10 min at 4° C. Plasma (1 mL) was spiked with 30 μL of 50% formic acid and 100 µL of 10 mmol ascorbic acid then stored at −80° C. prior to shipping on dry ice to the Physiological Chemistry laboratory.
# The plasma samples (350 μL) were spiked with malvidin 3-O-galactoside and further acidified with phosphoric acid prior to clean up on a SOLAμ™ Solid Phase Extraction plate. Following washing with water and acetic acid, the retained anthocyanins were eluted with methanol: formic acid (95:5), evaporated to dryness then reconstituted in acetonitrile: formic acid: water (5:3:92) prior to analysis by Liquid Chromatography-Mass Spectrometry (LC-MS). Quantifications of individual and total anthocyanins were performed using the internal standard ratio method using MultiQuant software, and all results are reported as cyanidin 3-O-glucoside equivalents. Quantification of sarmentosin was performed using an external reference standard supplied by Stephen Bloor (Callaghan Institute).
# [4] = In vitro digestion of blackcurrant juice concentrate (pepsin/acid, bile salts/pancreatin), LCMS; format: in vitro ADME
# Method: Samples were taken at the end of 1st step and at 30 min intervals in the 2nd step to give 6 samples for analysis. The samples will be examined (LCMS) for the level of sarmentosin and sarmentosin esters and compared with the feed material. The two samples were treated as shown below in Table 17 to replicate digestion. [table] Samples taken from the subsequent treatments were stored frozen until required for analysis. The samples were all a similar volume and concentration of original juice. Analysis was performed using LCMS (method described in the earlier work). Samples were prepared in two ways, 1. addition of methanol to precipitate any protein or 2. Direct sampling of neat solution after centrifugation.
# platelet MAO-B = target: T3, platelet MAO-B (Homo sapiens, UniProt P27338); test: Acute sarmentosin pilot study, platelet MAO-B activity (Example 10); format: in vivo; details: for platelet MAO-B activity compared with baseline (0 h): 2 h after consumption; for platelet MAO-B activity compared with baseline: 4 h after consumption
# T3 construct: platelets were isolated from whole blood; from tissue; host or cells: platelets isolated from venous blood of human participants
# T3 sequence (P27338 1-520): T2 sequence (P27338 1-520)
# Method: To determine the efficacy of sarmentosin in temporally inhibiting platelet MAO-B activity, we conducted a randomized, placebo-controlled crossover study. Human participants completed three treatment conditions (placebo, 42 mg sarmentosin, and 84 mg sarmentosin), with each trial day separated by at least 48 h.
# Five healthy male adults aged between 25 and 36 years old were enrolled in this study. Participants were randomly allocated one of the three trial treatment beverages. All participants completed all three treatment arms of the study, and data from all participants were included in the study analysis. Enrolled participants were required to take part in three trial days where they consumed their allocated sarmentosin beverages or the placebo. Participants adhered to the same dietary restrictions and consumed the same standardized breakfast as previously described in the intervention study. A venous blood sample was collected at the beginning of each trial day, and then, participants were given their treatment beverage to consume immediately. […] Water was provided ad libitum during the trial day, and participants were seated in the clinical trial facility between venous blood collection time points.
# Blackcurrant juice previously confirmed to contain sarmentosin was diluted 1:1 with RO-purified H2O and slowly applied to a column (10 cm diameter×125 cm height) filled with Diaion HP20 resin (Mitsubishi Chemical Industries, Japan). The eluant was collected until it was determined that most of sarmentosin had eluted and was quantified as described previously. Sarmentosin fractions were combined and concentrated using a rotary evaporator, and the resulting sarmentosin-rich fraction was then sterile filtered (Millipore Stericup (0.22 μM), Sigma-Aldrich).
# Participants consumed a 250 mL beverage containing 42 and 84 mg total sarmentosin, similar to that present in one and two servings, respectively, of a commercial BC juice (Arepa Performance). Sucrose, BC flavouring, and coloring were added to the beverages to blind for taste and appearance. The placebo beverage was matched for sucrose, contained the same volume of added BC flavouring and coloring produced by Sensient Technologies (Auckland, New Zealand) as the sarmentosin beverages, and diluted to 250 mL to match for sweetness, appearance, and flavor.
# MAO-B = target: T4, MAO-B (Sus scrofa, UniProt Q6PLK3); test: S9 porcine liver microsome fraction assay, kynuramine to 4HQ by LCMS; details: qualitative statement
# T4 sequence (Q6PLK3 2-520): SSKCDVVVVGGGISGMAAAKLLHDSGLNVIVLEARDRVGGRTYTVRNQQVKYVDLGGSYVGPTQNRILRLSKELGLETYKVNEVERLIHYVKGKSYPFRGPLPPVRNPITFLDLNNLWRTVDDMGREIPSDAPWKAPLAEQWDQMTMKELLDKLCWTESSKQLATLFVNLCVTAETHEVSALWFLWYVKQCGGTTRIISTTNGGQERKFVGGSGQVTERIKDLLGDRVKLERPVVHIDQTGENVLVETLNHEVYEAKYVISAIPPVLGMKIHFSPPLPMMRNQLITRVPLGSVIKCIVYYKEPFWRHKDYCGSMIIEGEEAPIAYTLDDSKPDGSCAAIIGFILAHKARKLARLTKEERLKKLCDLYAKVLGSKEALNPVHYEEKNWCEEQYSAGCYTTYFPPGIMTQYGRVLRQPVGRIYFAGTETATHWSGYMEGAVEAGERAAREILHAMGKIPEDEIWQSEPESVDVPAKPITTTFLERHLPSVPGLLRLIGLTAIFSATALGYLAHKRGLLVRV
# Method: We used a porcine S9 liver microsome fraction as the source of the MAO-A and MAO-B enzymes.
# The S9 porcine fraction was mixed with a specific MAO substrate (kynuramine) and mixed with the test sample and buffer. After 1 hr at 37° C. the reaction was halted by cooling and addition of 2N NaOH and acetonitrile. The centrifuged sample was then analysed using LCMS and the level of 4-quinolol (4HQ) product measured.
# Samples were prepared in a 6-well plate (deep well format with 1.1 ml strip tubes). The assay was performed by diluting the crude S9 fraction with buffer (PBS, PH 7.4, diluted 1 in 5, 150 μl) and adding the test sample dissolved in buffer (75 ul). An aliquot of kynuramine was added (10 ul of 1 mg/ml) and the plate was placed in a 37 C water bath for 1 hr. The plate was cooled in ice water before addition of 20 ul 2N NaOH followed by 250 μl acetonitrile. The individual strip tubes were centrifuged, and samples taken from each for LCMS analysis.
# The LCMS analysis was performed using a Cyano HPLC column eluted with 0.1% formic in water and acetonitrile. The LC run was isocratic mode (40% Acetonitrile) and the relative levels of 4 hydroxy quinoline (4HQ) and kynuramine determined from peak areas. […] Kynuramine is converted to 4HQ by the MAO-B enzyme.
# Various juice samples, concentrates, powders and whole fruit were tested. […]
# MAO-A [5] = target: T1, MAO-A; parameters: purchased Sigma-Aldrich MAK295/296; details: reversible inhibitor; cited from earlier work
compound,measurement,setting,value
O=C(NCCN1CCOCC1)c1ccc(Cl)cc1 [Moclobemide],time to reach peak concentrations,[1],approximately 1 hours
NNCCc1ccccc1 [Phenelzine],duration of inhibition of MAO-A and B,MAO-A and B,up to three
"N#C/C(=C\CO[C@@H]1O[C@H](CO)[C@@H](O)[C@H](O)[C@H]1O)CO [sarmentosin, 4-(beta-D-glucopyranosyloxy)-2-(hydroxymethyl-2-butenenitrile)]",IC50,MAO-A [2],3.55 µM
same,inhibition at 250 µM,human enzyme MAO-B,32%
same,time of peak concentrations of sarmentosin in plasma,[3],120 min
same,concentration after in vitro digestion steps,[4],increase
same,effect of final heating step (90 C. for 10 min) after digestion,[4],some degradation
same,platelet MAO-B activity compared with baseline (0 h),platelet MAO-B; 42 mg sarmentosin,similarly inhibited platelet MAO-B activity
same,platelet MAO-B activity compared with baseline,platelet MAO-B; 42 mg sarmentosin,MAO-B activity comparable to baseline
same,platelet MAO-B activity compared with baseline (0 h),platelet MAO-B; 84 mg sarmentosin,similarly inhibited platelet MAO-B activity
same,platelet MAO-B activity compared with baseline,platelet MAO-B; 84 mg sarmentosin,MAO-B activity comparable to baseline
same,MAO inhibition activity in S9-LCMS bioassay (level of 4HQ),MAO-B,the same activity
Cc1cccc(N2CC(CO)OC2=O)c1 (centres unmarked) [toloxatone],duration of MAO-A inhibition before activity returns to baseline,MAO-A [5],six
nigrumin-p-coumarate,concentration after in vitro digestion steps,"[4]; esters: steps 3 through 5, sarmentosin: steps 3 and 4, FIGS. 32 and 33",decrease
